The values that follow come from ChEMBL document CHEMBL4732261, “Design and synthesis of novel (S)-Naproxen hydrazide-hydrazones as potent VEGFR-2 inhibitors and their evaluation in vitro/in vivo breast cancer models” (Bioorg Med Chem, 2021).

pIC50: −log10 of the molar value. The source made the active and inactive calls. No cut-off for these calls is given here.

The subject of series [1] is MDA-MB-231. Kind of series: Cytotoxicity against human MDA-MB-231 cells assessed as reduction in cell viability after 48 hrs by MTT assay. Type of series: functional, cell-based. The following applies: MDA-MB-231, 48 h.
In the next series the test system is MCF7. In words: Cytotoxicity against human MCF7 cells assessed as reduction in cell viability after 48 hrs by MTT assay. Type of series: functional, cell-based. The note with it: MCF7, 48 h.
Series [2] relates to MDA-MB-231. In words: Down regulation of VEGFR2 in human MDA-MB-231 cells at IC50 concentration after 48 hrs by Western blot analysis. Type of series: functional, cell-based.
The subject of series [3] is MDA-MB-231. In words: Induction of apoptosis in human MDA-MB-231 cells assessed as decrease in Bcl2 protein expression at IC50 concentration after 48 hrs by Western blot analysis. Type of series: functional, cell-based.
Series [4] concerns MDA-MB-231. In words: Induction of morphological changes in human MDA-MB-231 cells assessed as DNA fragmentation at IC50 concentration after 48 hrs by DAPI staining based fluorescent microscopic analysis. It counts as functional, cell-based.
Series [5] concerns MDA-MB-231. Kind of series: Induction of morphological changes in human MDA-MB-231 cells assessed as nuclear condensation at IC50 concentration after 48 hrs by DAPI staining based fluorescent microscopic analysis. It counts as functional, cell-based.
Series [6] relates to MDA-MB-231. Kind of series: Induction of cell cycle arrest in human MDA-MB-231 cells assessed as increase in accumulation of cells at M phase at 12.5 to 50 uM after 24 hrs by propidium iodide staining base flow cytometric analysis. Type of series: functional, cell-based. The following applies: dose 12.5-50 µM.
The subject of series [7] is MDA-MB-231. Kind of series: Cytotoxicity against human MDA-MB-231 cells assessed as reduction in cell viability at 25 to 400 uM after 48 hrs by MTT assay. It counts as functional, cell-based. The note with it: dose 25-400 µM.
For series [8], the system named is MDA-MB-231. In words: Induction of cell cycle arrest in human MDA-MB-231 cells assessed as increase in accumulation of cells at S phase at 12.5 to 50 uM after 24 hrs by propidium iodide staining base flow cytometric analysis relative to control. Type of series: functional. The note with it: dose 12.5-50 µM.
For the next series, the system named is Ehrlich. In words: Antitumour activity against mouse EAC cells implanted in Balb/C mouse assessed as reduction in tumour volume at 60 to 120 mg/kg after 14 days. It counts as functional, organism-based. The following applies: dose 60-120 mg/kg, time 14.0 day.
Series [9] has as its system MDA-MB-231. In words: Induction of cell cycle arrest in human MDA-MB-231 cells assessed as accumulation of cells at G0/G1 phase at 50 uM after 24 hrs by propidium iodide staining base flow cytometric analysis (reference value: 73.2%). It counts as functional.
In the next series the test system is HEK293. Kind of series: Cytotoxicity against HEK293 cells assessed as reduction in cell viability after 48 hrs by MTT assay. Type of series: cell-based. The note with it: Homo sapiens, HEK293, 48 h.
Series [10] can be described thus: Cytotoxicity against human OSE cells assessed as reduction in cell viability after 48 hrs by MTT assay. It counts as cell-based. The note with it: HOSE.
Series [11] in a line: Toxicity in Balb/C mouse implanted with EAC cells assessed as mortality at 60 to 120 mg/kg after 14 days. Type of series: organism-based. The following applies: in vivo, 336 h, dose 60-120 mg/kg, time 14 day.
In series [12] the test system is MDA-MB-231. In words: Induction of cell cycle arrest in human MDA-MB-231 cells assessed as decrease in accumulation of cells at G0/G1 phase after 24 hrs by propidium iodide staining base flow cytometric analysis. It counts as functional, cell-based. The following applies: dose 12.5-50 µM.
For series [13], the system named is MDA-MB-231. Kind of series: Induction of cell cycle arrest in human MDA-MB-231 cells assessed as accumulation of cells at G2M phase at 12.5 to 50 uM after 24 hrs by propidium iodide staining base flow cytometric analysis relative to control. It counts as functional. The note with it: dose 12.5-50 µM.
The nature of series [14]: Toxicity in Balb/C mouse assessed as mortality at 30 to 120 mg/kg after 24 hrs. Type of series: organism-based. The note with it: in vivo, dose 30-120 mg/kg.

Consider `COc1ccc2cc([C@H](C)C(=O)N/N=C/c3cccn3C)ccc2c1`, for which the pIC50 was 3.89 in the series with MDA-MB-231 [1] and 3.45 with MCF7.
As to `COc1cccc2c1C(=O)c1c(O)c3c(c(O)c1C2=O)C[C@@](O)(C(=O)CO)C[C@@H]3O[C@H]1C[C@H](N)[C@H](O)[C@H](C)O1` [DOXORUBICIN], the result with MDA-MB-231 [2] and in the series with MDA-MB-231 [3] was Active. Moreover, the pIC50 in the series with MDA-MB-231 [1] is 7.22.
For the compound `COc1ccc2cc([C@H](C)C(=O)N/N=C/c3cc(Br)cs3)ccc2c1`, the negative logarithm of the IC50 (pIC50) in the series on MDA-MB-231 [1] was 3.74; in the series with MCF7, < 3.40.
`COc1ccc2cc([C@H](C)C(=O)N/N=C/c3ccc(OC(F)(F)F)cc3)ccc2c1`: the pIC50 with MDA-MB-231 [1] is 4.10; in the series with MCF7 it was < 3.40.
The matching figures for `COc1ccc2cc([C@H](C)C(=O)N/N=C/c3cccc(OC(F)(F)F)c3)ccc2c1`: 3.80 and < 3.40.
In the same order, the values of `COc1ccc2cc([C@H](C)C(=O)N/N=C/c3cc(C(F)(F)F)cc(C(F)(F)F)c3)ccc2c1` are 3.45 and 3.73.
In the same order, the values of `COc1ccc2cc([C@H](C)C(=O)N/N=C/c3c(F)cccc3F)ccc2c1` are 3.88 and 4.04.
As for `COc1ccc2cc([C@H](C)C(=O)N/N=C/c3ccc(C#N)cc3)ccc2c1`, the negative logarithm of the IC50 (pIC50) was 3.41 in the series on MDA-MB-231 [1] and 4.22 in the series with MCF7.
Turning to `COc1ccc2cc([C@H](C)C(=O)O)ccc2c1` [NAPROXEN], the result with MDA-MB-231 [4] and in the series on MDA-MB-231 [5] was inactive. Further, the pIC50 in the series on MDA-MB-231 [1] and with MCF7 was < 3.40 each time.
As to `COc1ccc2cc([C@H](C)C(=O)N/N=C/c3ccc([N+](=O)[O-])o3)ccc2c1`, the pIC50 in the series on MDA-MB-231 [1] is < 3.40; in the series on MCF7 it was 4.38.
In the same order, the values of `CCc1ccc(/C=N/NC(=O)[C@@H](C)c2ccc3cc(OC)ccc3c2)o1` are 3.75 and 3.58.
With `COc1ccc2cc([C@H](C)C(=O)N/N=C/c3cccc(C(F)(F)F)c3)ccc2c1`, the pIC50 with MDA-MB-231 [1] is 4.26; in the series on MCF7 it was 4.16.
For the compound `COc1ccc2cc([C@H](C)C(=O)N/N=C/c3ccccc3OC(F)(F)F)ccc2c1`, the result in the series on MDA-MB-231 [6], with MDA-MB-231 [4], with MDA-MB-231 [7], in the series with MDA-MB-231 [2], in the series on MDA-MB-231 [3] and in the series with Ehrlich was Active. The result in the series on MDA-MB-231 [5] was Active. The Activity is 12.3% in the series with MDA-MB-231 [8]; 18.2% with MDA-MB-231 [9]; “Non-Toxic” in [11]; “Dose-dependent effect” with MDA-MB-231 [12]; 14.5% in the series with MDA-MB-231 [13]; “Non-Toxic” in [14]. The pIC50 with HEK293 is 3.79; in [10], 4.31; in the series with MDA-MB-231 [1], 4.65; in the series on MCF7, 4.22.
Regarding `COc1ccc2cc([C@H](C)C(=O)N/N=C/c3ccc(C(F)(F)F)cc3)ccc2c1`, the results for the negative-log IC50 (pIC50) with MDA-MB-231 [1] and with MCF7 were 4.17 and 3.83, respectively.
